From ChEMBL document CHEMBL5252541, “Repurposing antipsychotic drugs into antifungal agents: Synergistic combinations of azoles and bromperidol derivatives in the treatment of various fungal infections” (Eur J Med Chem, 2017) come the findings set out here.

Structures are written as SMILES. Active and inactive are the calls of the source. The calls are words filed in the database; no cut-off is given here.

The test system of data set [1] is Candida albicans. The data set is described as follows: Synergistic antifungal activity against Candida albicans ATCC 64124 assessed as compound MIC measured after 48 hrs in presence of posaconazole by checkboard based microplate reader analysis. The format is functional.
Data set [2] concerns Candida albicans. The data set is described as follows: Synergistic antifungal activity against Candida albicans ATCC 10231 assessed as compound MIC measured after 48 hrs in presence of posaconazole by checkboard based microplate reader analysis. The format is functional.
Data set [3] has as its system Candida albicans. As to the kind of experiment: Synergistic antifungal activity against Candida albicans ATCC 10231 assessed as compound MIC measured after 48 hrs in presence of ketoconazole by checkboard based microplate reader analysis. It is filed as functional.
In data set [4] the test system is Nakaseomyces glabratus. The data set is described as follows: Antifungal activity against Candida glabrata ATCC 2001 measured after 48 hrs by broth microdilution analysis. It is filed as functional.
Data set [5] relates to Candida albicans. As to the kind of experiment: Additive antifungal activity against Candida albicans ATCC 64124 assessed as fractional inhibitory concentration index measured for 72 hrs in presence of fluconazole. It is filed as functional.
Data set [6] concerns Candida albicans. The data set is described as follows: Partial synergistic antifungal activity against Candida albicans ATCC 10231 assessed as fractional inhibitory concentration index measured for 72 hrs in presence of itraconazole. The format is functional.
Data set [7] relates to Candida albicans. As to the kind of experiment: Partial synergistic antifungal activity against Candida albicans ATCC 64124 assessed as fractional inhibitory concentration index measured for 72 hrs in presence of itraconazole. The format is functional.
The test system of data set [8] is Candida albicans. As to the kind of experiment: Partial synergistic antifungal activity against Candida albicans ATCC 10231 assessed as fractional inhibitory concentration index measured for 72 hrs in presence of ketoconazole. It is filed as functional.
For data set [9], the system named is Candida albicans. As to the kind of experiment: Partial synergistic antifungal activity against Candida albicans ATCC 64124 assessed as fractional inhibitory concentration index measured for 72 hrs in presence of ketoconazole. It is filed as functional.
Data set [10] deals with Candida albicans. The data set is described as follows: Antifungal activity against Candida albicans ATCC MYA-2310 measured after 48 hrs by broth microdilution analysis. The format is functional.
For data set [11], the system named is Candida albicans. As to the kind of experiment: Additive antifungal activity against Candida albicans ATCC MYA-2876 assessed as fractional inhibitory concentration index measured for 72 hrs in presence of posaconazole. It is filed as functional.
Data set [12] concerns Candida albicans. As to the kind of experiment: Partial synergistic antifungal activity against Candida albicans ATCC MYA-1003 assessed as fractional inhibitory concentration index measured for 72 hrs in presence of posaconazole. The format is functional.
In data set [13] the test system is Candida albicans. As to the kind of experiment: Partial synergistic antifungal activity against Candida albicans ATCC MYA-1003 assessed as fractional inhibitory concentration index measured for 72 hrs in presence of voriconazole. It is filed as functional.
Data set [14] deals with Candida albicans. As to the kind of experiment: Partial synergistic antifungal activity against Candida albicans ATCC MYA-2310 assessed as fractional inhibitory concentration index measured for 72 hrs in presence of voriconazole. The format is functional.
In data set [15] the test system is Candida albicans. The data set is described as follows: Fungicidal activity against Candida albicans ATCC 64124 assessed as reduction in colony forming units at 2 to 8 times MIC incubated after 6 hrs in presence of posaconazole by time kill assay. The format is functional, organism-based.
Data set [16] is described as follows: Cytotoxicity against mouse J774.A1 cells assessed as cell survival by XTT assay. The format is toxicity, cell-based. The settings on record: read-out: Activity.
Data set [17] concerns HEK293. The data set is described as follows: Cytotoxicity against HEK293 cells assessed as cell survival up to 4 microg/ml by XTT assay. It is filed as toxicity, cell-based. The settings on record: human, dose < 4 µg/ml.
Data set [18] deals with BEAS-2B. As to the kind of experiment: Cytotoxicity against human BEAS-2B cells assessed as cell survival up to 4 microg/ml by XTT assay. It is filed as toxicity, cell-based. The settings on record: dose < 4 µg/ml.
The test system of data set [19] is J774.A1. The data set is described as follows: Cytotoxicity against mouse J774.A1 cells assessed as cell survival up to 4 microg/ml by XTT assay. The format is toxicity, cell-based. The following applies: dose < 4 µg/ml.
The nature of data set [20]: Cytotoxicity against mouse J774.A1 cells assessed as cell survival at 32 microg/ml by XTT assay. The following applies: at 32 µg/mL, read-out: Activity. It is filed as toxicity, cell-based.
A short description of data set [21]: Cytotoxicity against mouse J774.A1 cells assessed as cell survival at 64 microg/ml by XTT assay. The following applies: at 64 µg/mL, read-out: Activity. The format is toxicity, cell-based.
Data set [22] relates to J774.A1. The data set is described as follows: Cytotoxicity against mouse J774.A1 cells assessed as cell survival at 16 microg/ml in presence of voriconazole by XTT assay. It is filed as toxicity, cell-based. The settings on record: dose 16 µg/ml.
The nature of data set [23]: Cytotoxicity against human HEK293 cells assessed as cell survival at 16 microg/ml in presence of posaconazole by XTT assay. The format is toxicity, cell-based. The following applies: at 16 µg/mL.
Data set [24] has as its system Candida albicans. The data set is described as follows: Additive antifungal activity against Candida albicans MYA-1003 assessed as fractional inhibitory concentration index measured for 72 hrs in presence of voriconazole.

`O=C(CCCN1CCC(O)(c2ccc(Br)cc2)CC1)c1ccc(F)cc1` [BROMPERIDOL]: the MIC was 4 µg/mL in data set [1]; 64 µg/mL in data set [2]; 32 µg/mL in [3]; more than 128 µg/mL in data set [4]; more than 128 µg/mL in data set [10]. Further, the “fractional inhibitory concentration index (FICI)” value in [5] is given as 1.5; in data set [6] it was 0.75; in [7], 0.56; in data set [8], 0.75; in data set [9], 0.75; in data set [11], 2. The “fractional inhibitory concentration index (FICI)” value in [12] turned out to be 0.75; in data set [13] it was 0.52; in data set [14], 0.53; in [24] it was 0.52. In data set [15], the result was Active. Moreover, the viability in [16] is more than 100%. Moreover, the Activity entry in data set [17], in [18], in [19] and in [22] was “Non-Toxic” throughout. The viability at 32 microg/ml in [20] worked out at 50%. In data set [21], the viability at 64 microg/ml was found to be 30%. Also, the viability at 16 microg/ml in data set [23] is 40%.
